Test results reported in US20020187514A1 (priority 1999, published 2002).

Columns and labels:
Histamine, H2 = biological target: T1, Histamine, H2 (Cavia porcellus, UniProt P47747); assay: biochemical; format: binding; conditions: read-out: Pass 1 (10^−5 M) % Inhibition
T1 construct: no other source notation after assay name denotes animal cell or animal tissue source; from tissue; host or cells: animal cell or animal tissue, not specified

[1] = reported in vivo pharmacology, cited from earlier work
[2] = system: Potassium Channel, Ca2+ Act., VS; assay: Potassium Channel, Ca2+ Act., VS; [125I]Charybdotoxin; format: binding; conditions: 10^−5 M
Adrenergic, Beta 2 = Adrenergic, Beta 2 (Homo sapiens, UniProt P07550); assay: biochemical; format: binding; conditions: read-out: Pass 1 (10^−5 M) % Inhibition
Glutamate, AMPA Site = assay: Glutamate, AMPA Site; [3H]AMPA; format: binding; conditions: 10^−5 M
[3] = system: Protein Tyrosine Phosphatase, PTP-Cell; assay: Protein Tyrosine Phosphatase, PTP-Cell (Human); substrate pNPP; format: biochemical; conditions: 10^−5 M
[4] = biological target: T2, Protein Tyrosine Phosphatase, PTP-LAR-D1 (Homo sapiens, UniProt P10586); assay: Protein Tyrosine Phosphatase, PTP-LAR-D1 (Human); substrate pNPP; format: biochemical; conditions: read-out: Pass 1 (10^−5 M) % Inhibition
T2 construct: PTP-LAR-D1

Opiate, Mu = biological target: T3, Opiate, Mu (Homo sapiens, UniProt P35372); assay: biochemical; format: binding; conditions: read-out: Pass 1 (10^−5 M) % Inhibition
T3 construct: expressed in transfected cells

Serotonin Transporter = Serotonin Transporter (Rattus norvegicus, UniProt P31652); assay: biochemical; format: binding; conditions: read-out: % Inhibiton (10^−5 M)
Calcium Channel, Type N = format: binding
Neuropeptide, NPY2 = Neuropeptide, NPY2 (Homo sapiens, UniProt P49146); assay: biochemical; format: binding; conditions: read-out: Pass 1 (10^−5 M) % Inhibition
Adenosine Transport (es) = Adenosine Transport (es) (Homo sapiens, UniProt Q99808); assay: biochemical; conditions: read-out: Pass 1 (10^−5 M) % Inhibition
[5] = biological target: GABA A, BDZ, alpha 1, central (Bos taurus, UniProt P08219+P22300); assay: biochemical; conditions: read-out: Pass 1 (10^−5 M) % Inhibition
Vasopressin, V1A = Vasopressin, V1A (Homo sapiens, UniProt P37288); assay: Vasopressin, V1A (Human); [125I]-Via Antagonist; format: binding; conditions: read-out: Pass 1 (10^−5 M) % Inhibition
Elastase = biological target: T4, Elastase (Homo sapiens, UniProt P08246); assay: Elastase (Human); substrate MeO-Suc-Ala-Ala-Pro-Val-pNA; format: biochemical; conditions: read-out: Pass 1 (10^−5 M) % Inhibition
T4 construct: from human cell lines; endogenous in cells

Opiate, Delta 2 = biological target: T5, Opiate, Delta 2 (Homo sapiens, UniProt P41143); assay: Opiate, Delta 2 (Human Recombinant); [3H]-Naltrindole; format: binding; conditions: read-out: Pass 1 (10^−5 M) % Inhibition
T5 construct: expressed in transfected cells

Muscarinic, M3 = Muscarinic, M3 (Homo sapiens, UniProt P20309); assay: biochemical; conditions: read-out: Pass 1 (10^−5 M) % Inhibition
Acetylcholinesterase = assay: Acetylcholinesterase; substrate Acetylthiocholine; format: biochemical
Serotonin, 5HT1D = Serotonin, 5HT1D (Homo sapiens, UniProt P28221); assay: biochemical; format: binding; conditions: read-out: Pass 1 (10^−5 M) % Inhibition
GABA-B = format: binding
Muscarinic, M2 = Muscarinic, M2 (Homo sapiens, UniProt P08172); assay: biochemical; conditions: read-out: Pass 1 (10^−5 M) % Inhibition
Neurokinin, NK2 (NKA) = biological target: T6, Neurokinin, NK2 (NKA) (Homo sapiens, UniProt P21452); assay: biochemical; format: binding; conditions: read-out: Pass 1 (10^−5 M) % Inhibition
T6 construct: expressed in transfected cells

Serotonin, 5HT4 = biological target: T7, Serotonin, 5HT4 (Cavia porcellus, UniProt O70528); assay: biochemical; format: binding; conditions: read-out: Pass 1 (10^−5 M) % Inhibition
T7 construct: no other source notation after assay name denotes animal cell or animal tissue source; from tissue; host or cells: animal cell or animal tissue, not specified

Histamine, H1 = biological target: T8, Histamine, H1 (Bos taurus, UniProt P30546); assay: Histamine, H1; [3H]Pyrilamine; format: binding; conditions: read-out: Pass 1 (10^−5 M) % Inhibition
T8 construct: no other source notation after assay name denotes animal cell or animal tissue source; from tissue; host or cells: animal cell or animal tissue, not specified

Melatonin = assay: Melatonin; [125I]-2-Iodomelatonin; format: binding; conditions: 10^−5 M
Serotonin, 5HT7 = biological target: T9, Serotonin, 5HT7 (Homo sapiens, UniProt P34969); assay: biochemical; format: binding; conditions: read-out: Pass 1 (10^−5 M) % Inhibition
T9 construct: expressed in transfected cells

Glutamate, Kainate Site = assay: Glutamate, Kainate Site; [3H]Kainic acid; format: binding; conditions: 10^−5 M
[6] = system: Thyrotropin Releasing Hormone, TRH; assay: Thyrotropin Releasing Hormone, TRH; [3H]-(3MeHis2)TRH; format: binding; conditions: 10^−5 M
[7] = system: Glutamate, NMDA Agonist Site; assay: Glutamate, NMDA Agonist Site; [3H]CGP 39653; format: binding; conditions: 10^−5 M
Serotonin, 5HT2A = Serotonin, 5HT2A (Homo sapiens, UniProt P28223); assay: biochemical; format: binding; conditions: read-out: Pass 1 (10^−5 M) % Inhibition
[8] = system: Glutamate, NMDA, Phencyclidine Site; assay: Glutamate, NMDA, Phencyclidine Site; [3H]TCP; format: binding; conditions: 10^−5 M
Opiate, Kappa = biological target: T10, Opiate, Kappa (Homo sapiens, UniProt P41145); assay: biochemical; format: binding; conditions: read-out: Pass 1 (10^−5 M) % Inhibition
T10 construct: expressed in transfected cells

Oxytocin = format: binding; conditions: 10^−5 M
Adrenergic, Alpha 2C = biological target: T11, Adrenergic, Alpha 2C (Homo sapiens, UniProt P18825); assay: Adrenergic, Alpha 2C (Human Recombinant); [3H]MK-912; format: binding; conditions: read-out: Pass 1 (10^−5 M) % Inhibition
T11 construct: expressed in transfected cells

[9] = system: Somatostatin, Non-selective; assay: Somatostatin, Non-selective; [125]-Somatostatin-14 (Tyr11); format: binding; conditions: 10^−5 M
Histamine, H3 = assay: Histamine, H3; [3H]N-a-MeHistamine; format: binding; conditions: 10^−5 M
Cannabinoid, CB1 = biological target: T12, Cannabinoid, CB1 (Homo sapiens, UniProt P21554); assay: Cannabinoid, CB1 (Human recombinant); [3H]-CP55940; format: binding; conditions: read-out: Pass 1 (10^−5 M) % Inhibition
T12 construct: expressed in transfected cells

Serotonin, 5HT1A = format: binding
Bradykinin, BK2 = biological target: T13, Bradykinin, BK2 (Homo sapiens, UniProt P30411); assay: Bradykinin, BK2 (Human recombinant); [3H]-Bradykinin; format: binding; conditions: read-out: Pass 1 (10^−5 M) % Inhibition
T13 construct: expressed in transfected cells

Angiotensin II, AT2 = format: binding; conditions: 10^−5 M
Adrenergic, Alpha 2A = Adrenergic, Alpha 2A (Homo sapiens, UniProt P08913); assay: Adrenergic, Alpha 2A (Human); [3H]MK-912; format: binding; conditions: read-out: Pass 1 (10^−5 M) % Inhibition

T11 sequence (P18825 whole entry): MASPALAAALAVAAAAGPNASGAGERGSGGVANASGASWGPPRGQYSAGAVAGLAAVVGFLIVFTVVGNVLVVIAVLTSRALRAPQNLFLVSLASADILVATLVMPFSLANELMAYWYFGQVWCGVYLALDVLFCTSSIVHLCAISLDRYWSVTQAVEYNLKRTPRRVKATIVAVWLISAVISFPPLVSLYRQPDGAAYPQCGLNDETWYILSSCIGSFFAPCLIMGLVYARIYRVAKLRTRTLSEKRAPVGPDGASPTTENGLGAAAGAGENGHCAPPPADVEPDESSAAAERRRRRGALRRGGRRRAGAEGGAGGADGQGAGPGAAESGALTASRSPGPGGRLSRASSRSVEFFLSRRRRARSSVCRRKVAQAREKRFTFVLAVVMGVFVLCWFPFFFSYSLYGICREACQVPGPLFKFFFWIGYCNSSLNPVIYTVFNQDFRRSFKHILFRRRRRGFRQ
T6 sequence (P21452 whole entry): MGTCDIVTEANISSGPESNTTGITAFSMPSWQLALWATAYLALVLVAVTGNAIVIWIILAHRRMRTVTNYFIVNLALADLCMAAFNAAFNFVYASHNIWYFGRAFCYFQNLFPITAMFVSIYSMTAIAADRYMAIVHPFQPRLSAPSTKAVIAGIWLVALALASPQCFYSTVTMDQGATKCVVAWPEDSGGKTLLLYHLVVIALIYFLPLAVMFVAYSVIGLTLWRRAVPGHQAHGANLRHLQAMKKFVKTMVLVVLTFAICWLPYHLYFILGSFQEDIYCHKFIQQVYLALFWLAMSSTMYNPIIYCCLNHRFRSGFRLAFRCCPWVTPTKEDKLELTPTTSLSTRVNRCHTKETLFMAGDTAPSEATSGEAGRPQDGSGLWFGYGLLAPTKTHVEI
Muscarinic, M3, sequence (P20309 whole entry): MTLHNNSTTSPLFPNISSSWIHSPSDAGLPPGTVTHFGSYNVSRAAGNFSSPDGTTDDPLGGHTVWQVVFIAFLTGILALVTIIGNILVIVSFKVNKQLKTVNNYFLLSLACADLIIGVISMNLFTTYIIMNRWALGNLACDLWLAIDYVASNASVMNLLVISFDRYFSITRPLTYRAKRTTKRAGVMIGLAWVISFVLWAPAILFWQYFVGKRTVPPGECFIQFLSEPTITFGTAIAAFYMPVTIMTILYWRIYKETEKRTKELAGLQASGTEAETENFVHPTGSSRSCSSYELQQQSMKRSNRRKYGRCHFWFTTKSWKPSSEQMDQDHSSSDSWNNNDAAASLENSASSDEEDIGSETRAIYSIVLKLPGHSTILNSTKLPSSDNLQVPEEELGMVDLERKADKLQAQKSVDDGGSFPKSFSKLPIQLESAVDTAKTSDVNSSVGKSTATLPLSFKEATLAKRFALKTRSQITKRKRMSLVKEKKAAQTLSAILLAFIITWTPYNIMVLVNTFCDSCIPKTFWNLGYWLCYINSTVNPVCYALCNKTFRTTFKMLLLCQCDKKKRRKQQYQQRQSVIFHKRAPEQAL
Adrenergic, Beta 2, sequence (P07550 whole entry): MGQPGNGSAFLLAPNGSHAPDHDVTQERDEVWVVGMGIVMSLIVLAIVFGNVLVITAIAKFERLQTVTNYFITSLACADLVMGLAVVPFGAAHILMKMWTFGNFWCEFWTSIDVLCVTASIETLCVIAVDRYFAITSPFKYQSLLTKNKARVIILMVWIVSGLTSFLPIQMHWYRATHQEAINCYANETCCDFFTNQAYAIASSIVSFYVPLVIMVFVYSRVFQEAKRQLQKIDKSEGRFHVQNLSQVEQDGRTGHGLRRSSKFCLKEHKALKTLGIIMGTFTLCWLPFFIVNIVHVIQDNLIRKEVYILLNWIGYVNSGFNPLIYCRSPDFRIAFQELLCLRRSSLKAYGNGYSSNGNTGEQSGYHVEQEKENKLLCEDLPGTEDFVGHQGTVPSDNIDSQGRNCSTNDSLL
T10 sequence (P41145 whole entry): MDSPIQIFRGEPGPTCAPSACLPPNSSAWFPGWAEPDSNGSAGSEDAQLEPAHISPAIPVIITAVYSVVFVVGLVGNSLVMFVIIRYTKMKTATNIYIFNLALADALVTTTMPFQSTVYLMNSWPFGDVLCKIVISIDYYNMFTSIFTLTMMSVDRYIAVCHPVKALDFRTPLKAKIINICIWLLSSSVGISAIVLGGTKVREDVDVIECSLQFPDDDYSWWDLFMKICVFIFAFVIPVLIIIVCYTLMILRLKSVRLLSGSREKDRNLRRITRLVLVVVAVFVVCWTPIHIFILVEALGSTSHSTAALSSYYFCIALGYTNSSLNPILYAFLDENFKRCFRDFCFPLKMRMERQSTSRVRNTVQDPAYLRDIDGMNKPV
T3 sequence (P35372 whole entry): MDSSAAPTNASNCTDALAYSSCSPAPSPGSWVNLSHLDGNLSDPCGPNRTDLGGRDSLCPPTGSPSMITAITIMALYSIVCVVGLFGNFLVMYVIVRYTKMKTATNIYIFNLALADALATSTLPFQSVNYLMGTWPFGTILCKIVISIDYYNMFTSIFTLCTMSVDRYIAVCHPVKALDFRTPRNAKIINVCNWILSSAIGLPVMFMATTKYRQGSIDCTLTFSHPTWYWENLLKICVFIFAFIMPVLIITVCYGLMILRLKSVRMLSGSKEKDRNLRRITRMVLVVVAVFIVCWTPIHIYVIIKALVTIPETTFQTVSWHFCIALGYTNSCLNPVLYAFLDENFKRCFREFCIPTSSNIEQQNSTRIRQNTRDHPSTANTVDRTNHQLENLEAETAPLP
T13 sequence (P30411 whole entry): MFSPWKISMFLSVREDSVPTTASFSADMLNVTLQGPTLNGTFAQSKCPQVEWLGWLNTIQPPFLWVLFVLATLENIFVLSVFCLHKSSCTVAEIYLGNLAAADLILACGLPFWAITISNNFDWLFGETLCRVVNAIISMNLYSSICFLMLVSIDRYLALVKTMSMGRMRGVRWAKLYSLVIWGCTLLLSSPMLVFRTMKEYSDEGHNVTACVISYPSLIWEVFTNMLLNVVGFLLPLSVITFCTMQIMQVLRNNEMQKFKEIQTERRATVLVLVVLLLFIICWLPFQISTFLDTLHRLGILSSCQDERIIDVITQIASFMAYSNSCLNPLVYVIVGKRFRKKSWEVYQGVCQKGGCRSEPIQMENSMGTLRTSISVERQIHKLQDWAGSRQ
Serotonin, 5HT2A, sequence (P28223 whole entry): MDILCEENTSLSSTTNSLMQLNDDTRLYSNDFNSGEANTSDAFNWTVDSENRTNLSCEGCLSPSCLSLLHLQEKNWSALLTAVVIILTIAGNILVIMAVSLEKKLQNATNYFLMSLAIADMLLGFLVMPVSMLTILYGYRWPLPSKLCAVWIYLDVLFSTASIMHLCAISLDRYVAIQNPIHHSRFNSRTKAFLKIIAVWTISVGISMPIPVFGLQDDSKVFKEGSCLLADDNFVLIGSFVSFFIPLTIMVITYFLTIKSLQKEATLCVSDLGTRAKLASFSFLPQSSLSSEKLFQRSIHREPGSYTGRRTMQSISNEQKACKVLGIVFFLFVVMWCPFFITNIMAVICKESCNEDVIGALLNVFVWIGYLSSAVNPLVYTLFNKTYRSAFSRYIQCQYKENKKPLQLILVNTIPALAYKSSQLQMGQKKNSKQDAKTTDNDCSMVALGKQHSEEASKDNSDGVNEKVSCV
Serotonin Transporter, sequence (P31652 whole entry): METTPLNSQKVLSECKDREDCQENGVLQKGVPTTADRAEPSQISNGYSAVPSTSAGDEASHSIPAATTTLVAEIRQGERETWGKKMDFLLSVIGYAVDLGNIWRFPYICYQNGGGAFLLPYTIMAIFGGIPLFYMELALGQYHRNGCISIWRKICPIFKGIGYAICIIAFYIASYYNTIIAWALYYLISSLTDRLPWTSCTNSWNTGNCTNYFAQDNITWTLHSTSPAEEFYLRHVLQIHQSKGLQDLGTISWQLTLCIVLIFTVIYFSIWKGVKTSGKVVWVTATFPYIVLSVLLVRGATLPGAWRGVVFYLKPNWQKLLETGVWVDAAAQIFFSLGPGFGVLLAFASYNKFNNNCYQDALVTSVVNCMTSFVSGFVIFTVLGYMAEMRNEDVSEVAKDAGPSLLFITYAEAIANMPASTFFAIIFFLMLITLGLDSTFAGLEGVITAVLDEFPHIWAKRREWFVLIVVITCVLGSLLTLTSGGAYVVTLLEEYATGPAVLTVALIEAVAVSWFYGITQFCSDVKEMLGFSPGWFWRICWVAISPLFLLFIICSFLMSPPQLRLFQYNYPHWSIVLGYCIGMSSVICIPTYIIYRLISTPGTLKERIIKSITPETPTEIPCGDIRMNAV
T4 sequence (P08246 30-267): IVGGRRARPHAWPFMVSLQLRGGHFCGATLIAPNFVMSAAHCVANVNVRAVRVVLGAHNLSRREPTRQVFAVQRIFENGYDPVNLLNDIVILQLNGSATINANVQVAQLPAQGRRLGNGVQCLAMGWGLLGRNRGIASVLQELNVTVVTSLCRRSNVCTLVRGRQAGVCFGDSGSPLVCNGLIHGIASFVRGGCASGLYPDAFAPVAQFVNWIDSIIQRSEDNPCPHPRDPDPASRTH
T2 sequence (P10586 1352-1607): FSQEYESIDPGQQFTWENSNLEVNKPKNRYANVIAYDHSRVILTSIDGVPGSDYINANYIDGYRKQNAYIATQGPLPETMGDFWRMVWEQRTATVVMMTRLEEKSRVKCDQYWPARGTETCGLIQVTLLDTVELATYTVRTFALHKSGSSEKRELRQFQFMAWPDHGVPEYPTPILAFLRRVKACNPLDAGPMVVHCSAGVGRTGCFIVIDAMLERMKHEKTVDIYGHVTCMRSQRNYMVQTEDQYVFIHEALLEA

COC(=O)[C@H]1[C@@H](OC(=O)c2ccccc2)C[C@@H]2CC[C@H]1N2C [cocaine]
inhibition at 10 µM (Histamine, H2): 28.8%
effects of high dosages ([1]; high dosages): euphoria, involuntary motor activity, stereotypic behavior, paranoia, and irritability and increased risk of violence
effect on heart rate and blood pressure [1]: dosage dependent increase in heart rate and blood pressure
Pass 1 (10^−5 M) % Inhibition [2]: 16.63%
inhibition at 10 µM (Adrenergic, Beta 2): -15.6%
Pass 1 (10^−5 M) % Inhibition (Glutamate, AMPA Site): −9.30%
Pass 1 (10^−5 M) % Inhibition [3]: −17.63%
inhibition at 10 µM [4]: 24.4%
inhibition at 10 µM (Opiate, Mu): 3.08%
inhibition at 10 µM (Serotonin Transporter): 96.2%
Pass 1 (10^−5 M) % Inhibition (Calcium Channel, Type N): 11.51%
inhibition at 10 µM (Neuropeptide, NPY2): 4.27%
inhibition at 10 µM (Adenosine Transport (es)): 47.5%
inhibition at 10 µM [5]: 9.58%
inhibition at 10 µM (Vasopressin, V1A): -4.37%
inhibition at 10 µM (Elastase): -11.2%
inhibition at 10 µM (Opiate, Delta 2): 21.5%
inhibition at 10 µM (Muscarinic, M3): -8.07%
Pass 1 (10^−5 M) % Inhibition (Acetylcholinesterase): 8.18%
inhibition at 10 µM (Serotonin, 5HT1D): 3.12%
Pass 1 (10^−5 M) % Inhibition (GABA-B): 24.90%
inhibition at 10 µM (Muscarinic, M2): 3.57%
inhibition at 10 µM (Neurokinin, NK2 (NKA)): 13.7%
inhibition at 10 µM (Serotonin, 5HT4): 22.1%
inhibition at 10 µM (Histamine, H1): -19.7%
Pass 1 (10^−5 M) % Inhibition (Melatonin): 16.13%
inhibition at 10 µM (Serotonin, 5HT7): 26.8%
Pass 1 (10^−5 M) % Inhibition (Glutamate, Kainate Site): 1.95%
Pass 1 (10^−5 M) % Inhibition [6]: −11.95%
Pass 1 (10^−5 M) % Inhibition [7]: 38.66%
inhibition at 10 µM (Serotonin, 5HT2A): 23.4%
Pass 1 (10^−5 M) % Inhibition [8]: 6.63%
inhibition at 10 µM (Opiate, Kappa): 1.87%
Pass 1 (10^−5 M) % Inhibition (Oxytocin): −4.65%
inhibition at 10 µM (Adrenergic, Alpha 2C): -5.94%
Pass 1 (10^−5 M) % Inhibition [9]: −3.54%
Pass 1 (10^−5 M) % Inhibition (Histamine, H3): −4.60%
inhibition at 10 µM (Cannabinoid, CB1): 33.4%
Pass 1 (10^−5 M) % Inhibition (Serotonin, 5HT1A): 0.52%
inhibition at 10 µM (Bradykinin, BK2): 4.48%
Pass 1 (10^−5 M) % Inhibition (Angiotensin II, AT2): 5.85%
inhibition at 10 µM (Adrenergic, Alpha 2A): 15.3%
